From PubChem BioAssay AID1549 (Sanford-Burnham Center for Chemical Genomics, 2009)
Active and inactive are the calls of the source. The rule behind the calls is not given here.

The compounds below were run against Influenza A virus M2 proton channel (A/TW/4845/1999 H1N1) (assay: NMR binding screen, influenza A virus M2 proton channel, Kd (AID 1549)). Settings: M2 protein.
`O=C1NC(=O)/C(=C\c2ccncc2)S1` was tested, and the Kd was > 4 mM (inactive). With `Cc1cc(=O)c2ccccc2n1CC(N)=O` the Kd was > 4 mM (inactive). With `COc1cc2c(cc1OC)[C@@H]1C(=O)c3ccc4c(c3O[C@@H]1CO2)CC(C(C)C)O4` (some centres not stated) the Kd was > 4 mM (inactive). `O=C1NC(=Nc2ccccc2Cl)SC1(CO)CO` was tested, and the Kd was > 4 mM (inactive). In the case of `O=c1ccc2cc(O[C@@H]3O[C@H](CO)[C@@H](O)[C@H](O)[C@H]3O)c(O)cc2o1`, the Kd is reported as > 4 mM (inactive). `CN1CCN(C(=O)Nc2cccc3ccccc23)CC1` was tested, and the Kd was > 4 mM (inactive). In the case of `CC1(C)Cc2c(c(-c3ccco3)[nH]c(=O)c2C#N)CO1`, the Kd is reported as > 4 mM (inactive). `c1ccc2c(c1)[nH]c1cnccc12` was tested, and the Kd was > 4 mM (inactive). In the case of `O=C(Nc1ccccc1)c1cccc(N2C(=O)CCC2=O)c1`, the Kd is reported as > 4 mM (inactive). `Nc1nnc(C(F)(F)F)s1` was tested, and the Kd was > 4 mM (inactive). In the case of `CC(=O)Nc1ccc(-c2ccc3nncn3n2)cc1`, the Kd is reported as > 4 mM (inactive). `O=C1C2CCCCC2C(=O)N1Cc1cccnc1` (configuration not stated) was tested, and the Kd was > 4 mM (inactive). With `Cc1ccccc1-n1c(-c2cccnc2)n[nH]c1=S` the Kd was > 4 mM (inactive). `O=Cc1c(N2CCOCC2)nc2ccccn2c1=O` was tested, and the Kd was > 4 mM (inactive). `CC1Cc2nc(SCC(N)=O)n(C)c(=O)c2S1` (configuration not stated) was tested, and the Kd was > 4 mM (inactive). With `CC(C)(CO)NC(=O)c1ccccc1F` the Kd was > 4 mM (inactive). `O=C(Nc1ccc2c(c1)OCCO2)c1c(F)cccc1F` was tested, and the Kd was > 4 mM (inactive). In the case of `O=c1nc(N2CCCCC2)nc2n1CCO2`, the Kd is reported as > 4 mM (inactive). For `CS(=O)(=O)N1CCN(c2ccccc2F)CC1`, the Kd was > 4 mM (inactive). In the case of `C/C=C1\[C@H]2C=C(C)C[C@]1(N)c1ccc(=O)[nH]c1C2`, the Kd is reported as > 4 mM (inactive). For `NCc1ccc(-n2cccn2)cc1`, the Kd was > 4 mM (inactive). `CC1/C(=N/O)C[C@@H]2C[C@H]1C2(C)C` (some centres not stated) was tested, and the Kd was > 4 mM (inactive). `CC(=O)OCC(OC(C)=O)C(OC(C)=O)C(OC(C)=O)C(OC(C)=O)C(COC(C)=O)OC(C)=O` (configuration not stated) was tested, and the Kd was > 4 mM (inactive). With `C=CCc1cc(C(=O)N2CCCCC2)ccc1O` the Kd was > 4 mM (inactive). With `NC(=O)CS(=O)(=O)c1ccc2ccccc2c1` the Kd was > 4 mM (inactive). For `O=C1NC(=Nc2ccccc2)S/C1=C/c1cccnc1`, the Kd was > 4 mM (inactive). `Cc1cc(C)c2ccc[n+]([O-])c2c1O` was tested, and the Kd was > 4 mM (inactive). For `O=C(O)c1cccnc1`, the Kd was > 4 mM (inactive). With `CC(NC(=O)C1CCCCC1)C(=O)NC1=NCCS1` (configuration not stated) the Kd was > 4 mM (inactive). For `Cc1cc(C)n2nc(C(=O)Nc3cccnc3)nc2n1`, the Kd was > 4 mM (inactive). For `CC(C)CCCC(C)[C@H]1CCC2C3CC[C@@H]4C[C@H](O)CC[C@]4(C)C3CC[C@@]21C` (some centres not stated), the Kd was > 4 mM (inactive). `Cc1cc(=O)[nH]c(N2CCN(Cc3ccccc3)CC2)n1` was tested, and the Kd was > 4 mM (inactive). `Nc1ccc(NS(=O)(=O)c2ccc(N)cc2)cc1` was tested, and the Kd was > 4 mM (inactive). For `O=C(O)CCCN1CNC(=S)NC1`, the Kd was > 4 mM (inactive). In the case of `O=C(NCc1ccccc1)c1cnsn1`, the Kd is reported as > 4 mM (inactive). With `Cc1nc(-c2cccc(-c3noc(C)n3)c2)no1` the Kd was > 4 mM (inactive). With `COC(=O)[C@]1(C)CCC[C@]2(C)c3ccc(C(C)C)cc3C(=O)CC12` (some centres not stated) the Kd was > 4 mM (inactive). `O=C(O)c1ccc2c(c1)CCO2` was tested, and the Kd was > 4 mM (inactive). With `O=C1CCCN1C(=O)CN1CCOCC1` the Kd was > 4 mM (inactive). With `Cc1ccc(C(=O)NCCO)c(Cl)c1` the Kd was > 4 mM (inactive). For `O=C(O)c1cccc(O)c1O`, the Kd was > 4 mM (inactive). In the case of `Cc1ccsc1/C=c1\sc2ncnn2c1=O`, the Kd is reported as > 4 mM (inactive). `O=C1CSC2=NCCCN12` was tested, and the Kd was > 4 mM (inactive). For `Cc1ccc(NC(=O)c2ccccc2)s1`, the Kd was > 4 mM (inactive). For `O=C1NC(=S)N/C1=C/c1ccsc1`, the Kd was > 4 mM (inactive). `O=[N+]([O-])c1cccc(-c2nnco2)c1` was tested, and the Kd was > 4 mM (inactive). `CCC(/C=C/[C@@H](C)[C@H]1CCC2C3CC=C4C[C@@H](O)CC[C@]4(C)C3CC[C@@]21C)C(C)C` (some centres not stated) was tested, and the Kd was > 4 mM (inactive).
